Test results: article PMC5937145, “Synergism of Antimicrobial Frog Peptides Couples to Membrane Intrinsic Curvature Strain” (Biophysical Journal, 2018)
Marks after values point to notes of the source that are not given here. Bridge positions count the residues as written; N and C are the ends. Ends that are not written are not given here. I, II: the chains in the order shown.

Key:
[1] = ANTS/DPX leakage of POPC LUVs; type: biochemical; settings: within studied concentration range 0.016-1 μM, lipid 50 μM, pH 7.4, 37°C, three independent measurements
Protocol: (§1) Large unilamellar vesicles (LUVs) of ∼100 nm size were prepared and assayed for AMP-induced fluorescence leakage as described previously ([23]). Intrinsic lipid curvatures were determined using a SAXSpace small-angle x-ray camera (Anton Paar, Graz, Austria) applying previously developed procedures ([24]). Monte Carlo (MC) simulations were performed using the Metropolis scheme and computationally efficient implicit-solvent coarse-grained models. Lipids were described by a three-bead model developed by Cooke and Deserno ([25]), and the peptide was modeled by a patchy spherocylinder ([26]). Free-energy calculations for peptide translocation were performed using the Wang-Landau method ([27]). For details of experimental and simulation procedures, see the Supporting Material. […]
(§2) Lipid films (20 mg total lipid) for dye-release experiments were prepared by mixing the appropriate amounts of dissolved phospholipids before evaporation of solvents under a stream of nitrogen and stored in vacuum overnight. […] Liposomal lipids were quantified by the determination of lipid phosphorus according the method described by (2). […]
(§3) Leakage of the aqueous content of ANTS/DPX-loaded LUVs upon incubation with peptides was determined according to (9) and as detailed previously (1). […]
(§4) Percentage of leakage was calculated from the fraction of the leakage (10) […]

[2] = cited from earlier work
Description: Intriguingly, however, cytoplasmic membranes of Gram-negative bacteria are enriched in lipids with negative intrinsic curvature, such as phosphatidylethanolamine (PE) ([20]). This prompted us to correlate membrane-permeabilizing activities of magainin monomers and dimers in different lipid-only model systems with various intrinsic curvatures J0 determined from small-angle x-ray scattering (SAXS). In particular, we studied the activity of L18W-PGLa and MG2a, as well as their analogs containing GGC linkers, which were used to form the L18W-PGLa-MG2a hybrid peptide (Fig. 1). The choice of L18W-PG ...

[3] = ANTS/DPX leakage of POPE/POPG LUVs; type: biochemical; settings: for Leakage: POPE/POPG LUVs, lipid 50 μM, pH 7.4, 37°C
Protocol: as §1
Lipid films (20 mg total lipid) for dye-release experiments were prepared by mixing the appropriate amounts of dissolved phospholipids before evaporation of solvents under a stream of nitrogen and stored in vacuum overnight. After addition of Hepes buffer containing the fluorophor/quencher ANTS/DPX (10 mM Hepes, 68 mM NaCl, 12.5 mM ANTS, 45 mM DPX, pH 7.4), formation of lipid vesicles was achieved by equilibration at 15°C above the lipid’s melting temperature and intermittent vigorous vortex mixing. PE/PG-mixtures were additionally homogenized by six freeze/thaw-cycles. Large unilamellar vesicles (LUVs) were obtained by 25 cycles of extrusion of the hydrated liposomes through a polycarbonate filter (Millipore-IsoporeTM, Merck, Vienna) of 0.1 µm pore size above the lipid’s melting temperature. Non-encapsulated fluorophore and quencher were removed by size-exclusion chromatography using SephadexTM G-75 (Sigma-Aldrich, Vienna) gel as described earlier (1). LUVs were eluted with Hepes buffer (10 mM Hepes, 140 mM NaCl, pH 7.4). Liposomal lipids were quantified by the determination of lipid phosphorus according the method described by (2). The final LUV concentration for dye-release experiments was adjusted to 50 µM in Hepes buffer (10 mM Hepes, 140 mM NaCl, pH 7.4). […]
Leakage of the aqueous content of ANTS/DPX-loaded LUVs upon incubation with peptides was determined according to (9) and as detailed previously (1). Briefly, 2 ml of LUV suspension was filled into quartz cuvettes and equilibrated at 37°C for 5 minutes. Incremental amounts of peptide solutions prepared in Hepes buffer were added to the LUV suspension with µ-pipettes and mixed using a magnetic stirrer to achieve final peptide concentrations ranging from 0.016 - 1 μM, corresponding to peptide-to-lipid molar ratios from 1:3200 to 1:50. Fluorescence emission was recorded 5 minutes before and after the addition of peptides on a Cary Eclipse Fluorescence Spectrophotometer (Varian Inc., now Agilent Technologies, California, US) using an excitation wavelength of λex = 360 nm and an emission wavelength λem = 530 nm. The slit widths for excitation and emission monochromators were set to 10 nm.
as §4
(§5) where F is the measured fluorescence, F0 is the initial fluorescence without peptide, and Fmax is the fluorescence corresponding to 100% leakage gained by addition of 1% Triton X-100. […]
In order to verify the dimeric or monomeric state of peptides, 2 µg of peptides were dissolved in loading buffer without DTT and separated by a one-dimensional SDS-PAGE using 5 % stacking and 18 % separating gels according to the method of Laemmli (11). […]

[4] = cited from earlier work; remark: listed apart in the source
Description: Table 2 Thermodynamics of AMP Insertion in PC Membranes According to the Wimley-White Hydrophobicity Scale | column: % helix in PC

[5] = ANTS/DPX leakage of lyso-PE/POPE/POPG LUVs; type: biochemical; settings: 1 μM peptide, lipid 50 μM, pH 7.4, 37°C, three independent measurements
Protocol: as §1, §2, §3, §4

[6] = ANTS/DPX leakage of POPC/POPG LUVs; type: biochemical; settings: 1 μM peptide, lipid 50 μM, pH 7.4, 37°C, three independent measurements
Protocol: as §1, §2, §3, §4

E. coli K12 = assay: MIC, inhibition of bacterial growth (turbidimetric, Bioscreen C); type: cell-based, Escherichia coli; settings: E. coli K12, Mueller-Hinton broth without Ca2+, 37°C, no increment of turbidity after 48 h, CLSI guidelines
Protocol: To study the effect of magainins on metabolically active bacteria, we assessed the antimicrobial activity of the peptides by determining the MIC values according to Clinical and Laboratory Standards Institute (CLSI, formerly National Committee for Clinical Laboratory Standards) guidelines.
Inhibition of bacterial growth by frog peptides was determined using an automated turbidimetric-based system (Bioscreen C, Labsystem, Helsinki, Finland), which measures absorbance of cell cultures in 100-well plates at regular time intervals (λ = 580 nm). Assays were performed in Mueller-Hinton (MH) broth without Ca2+ (18) using Bioscreen polystyrene honeycomb 100-well plates. Briefly, serial dilutions of the AMPs or control antibiotics (gentamicin and ampicillin B) were made in MH broth and dispensed with a multi-pipette into […]
polystyrene honeycomb 100-well plates. E. coli K12 cells grown for 18–20 h on agar plates were suspended in saline adjusting the turbidity to an optical density at λ=565 nm (OD565) of 0.5 (~1 × 10^8 cells/mL) using a DEN-1B densitometer (Grant Instruments, Cambridge, UK).
A fifty-fold dilution of this E. coli suspension prepared in MH broth was mixed with 50 µL (1:1 volume ratio) of a given peptide solution by three times up and down pipetting. Resulting cell suspensions were grown at 37°C with continuous, low amplitude shaking. The turbidity was measured in intervals of 5 minutes (filter bandwidth: λ= 420 – 580 nm). MIC was considered as the minimum concentration of peptide that inhibited any increment of turbidity […]
2011. Studies on lactoferricin-derived Escherichia coli membrane-active peptides reveal differences in the mechanism of N-acylated versus nonacylated peptides. J Biol Chem […]
2. Broekhuyse, R. M. 1968. Phospholipids in tissues of the eye. […]
vinyl-ether phospholipids. Biochim Biophys Acta 152:307–315.
Chemistry and physics of lipids 154:64–67.
8. Israelachvili, J. N. 2011. Intermolecular and surface forces, 3rd ed. Academic Press, […]

[7] = ANTS/DPX leakage of POPC/Chol LUVs; type: biochemical; settings: lipid 50 μM; for Leakage: dimers and mixture, highest concentration studied (1 μM), pH 7.4, 37°C
Protocol: as §1
Lipid films (20 mg total lipid) for dye-release experiments were prepared by mixing the appropriate amounts of dissolved phospholipids before evaporation of solvents under a stream of nitrogen and stored in vacuum overnight. After addition of Hepes buffer containing the fluorophor/quencher ANTS/DPX (10 mM Hepes, 68 mM NaCl, 12.5 mM ANTS, 45 mM DPX, pH 7.4), formation of lipid vesicles was achieved by equilibration at 15°C above the lipid’s melting temperature and intermittent vigorous vortex mixing. […] Liposomal lipids were quantified by the determination of lipid phosphorus according the method described by (2). […]
Leakage of the aqueous content of ANTS/DPX-loaded LUVs upon incubation with peptides was determined according to (9) and as detailed previously (1). […] Fluorescence emission was recorded 5 minutes before and after the addition of peptides on a Cary Eclipse Fluorescence Spectrophotometer (Varian Inc., now Agilent Technologies, California, US) using an excitation wavelength of λex = 360 nm and an emission wavelength λem = 530 nm. […]
as §4, §5

[8] = individual peptides at concentrations above 0.25 μM up to 1 μM (remained at the same level), three independent measurements
[9] = dimers, plateau/final value at high peptide concentration (up to 1 μM)

## GMASKAGAIAGKIAKVAWKAL-NH2 [L18W-PGLa]
[1]
  Maximal leakage: ≤ 10%
[2]
  Dye release from lipid vesicles compared to native PGLa: almost identical to that induced by native PGLa
[3]; [8]
  Leakage: ≤ 6%
[4]
  % helix in PC: 72 ^b %
[5]
  Leakage: full LUV leakage
[6]
  Leakage: full LUV leakage
E. coli K12
  MIC: ~31.25 µg/mL

## I: GMASKAGAIAGKIAKVAWKALGGC-NH2 / II: GMASKAGAIAGKIAKVAWKALGGC-NH2 (disulfide I:24-II:24) [L18W-PGLa homodimers]
[7]
  Leakage: ~74%
  Peptide concentration above which active (leakage): > 0.1 µM
[3]; [9]
  Leakage: ~100%
[3]; POPE/POPG vesicles, DTT (40 μM) added to peptide solution before mixing with LUVs
  Permeabilization capabilities after DTT reduction: identical with that of L18W-PGLa peptide
E. coli K12
  MIC: ~7.8 µg/mL

## I: GIGKFLHSAKKFGKAFVGEIMNSGGC-NH2 / II: GIGKFLHSAKKFGKAFVGEIMNSGGC-NH2 (disulfide I:26-II:26 (inferred)) [MG2a homodimers]
[7]
  Leakage: not able to induce significant dye release
[3]; [9]
  Leakage: ~60%
E. coli K12
  MIC: 7.8 µg/mL

## GIGKFLHSAKKFGKAFVGEIMNS-NH2 [MG2a]
[3]; [8]
  Leakage: ≤ 6%
[4]
  % helix in PC: 83 ^a %
E. coli K12
  MIC: 62.5 µg/mL
